Experimental data published in the NIST ThermoML archive (doi:10.1016/j.tca.2010.07.032).
Values joined by “and” are separate entries in the source; they are usually repeats but may differ in a detail not shown here. Identical values can stand only once. Numbers after ± are expanded uncertainties.

Settings: Liquid; Temperature-Programmed Gas Chromatography

SMILES | Normal boiling temperature
CCOP(=O)(OCC)OCC [ethyl phosphate] | 215.89 ± 22 °C and 216.34 ± 22 °C
CCCC(C)OP(=O)(OC(C)CCC)OC(C)CCC (stereo not drawn) [tri-sec-amyl phosphate] | 282.02 ± 28 °C and 282.74 ± 28 °C
CCC(C)OP(=O)(OC(C)CC)OC(C)CC (stereo not drawn) [tri-sec-butyl phosphate] | 260.80 ± 26 °C and 261.06 ± 26 °C
CCCCCCOP(=O)(OCCCCCC)OCCCCCC [trihexyl phosphate] | 366.12 ± 37 °C and 365.02 ± 36 °C
CC(C)COP(=O)(OCC(C)C)OCC(C)C [triisobutyl phosphate] | 264.67 ± 26 °C and 265.70 ± 27 °C
CC(C)CCOP(=O)(OCCC(C)C)OCCC(C)C [triisopentyl phosphate] | 302.29 ± 30 °C and 302.37 ± 30 °C
COP(=O)(OC)OC [trimethyl orthophosphate] | 195.06 ± 20 °C and 194.97 ± 20 °C
CCCCCOP(=O)(OCCCCC)OCCCCC [tripentyl phosphate] | 323.21 ± 32 °C and 326.62 ± 33 °C
